As usually defined, the pIC50 is the negative decadic logarithm of the IC50, by convention in mol/L.

The text below walks through data of patent US20250197372A1 (priority 2020, published 2025).

pIC50: −log10 of the molar value.

Type in all cases: biochemical
Test [1] addresses rat sucrase (partially purified alpha-glucosidase from intestinal rat powder) (Rattus norvegicus, UniProt P23739). Briefly: Intestinal alpha-glucosidase assay, sucrose substrate (Glucose GO Kit). The essentials: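 Glucose release is the read-out: compounds at multiple dilutions are first held with partially purified rat intestinal alpha-glucosidase for 60 min at 37 °C, after which maltose or sucrose substrate reacts for 30 min at 37 °C before a 5 min 90 °C stop. IC50 comes from a four-parameter logistic fit.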

Test [2] concerns the target recombinant human GAA (acid alpha-glucosidase) (Homo sapiens, UniProt P10253). Briefly: Acid alpha-glucosidase (GAA) assay (4-methylumbelliferyl-alpha-D-pyranoside substrate, fluorescence). The essentials: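 IC50 from 4-PL curve fit of percent inhibition, based on fluorescence (365/440 nm) of released methylumbelliferone relative to uninhibited enzyme. Compound dilutions and human GAA incubated 60 min, 37 °C, before 20 min substrate reaction at 37 °C, quenched at pH 10.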

For test [3], the target named is T1, recombinant human GBA (beta-glucocerebrosidase) (Homo sapiens, UniProt P04062).
T1 sequence (P04062 40-536): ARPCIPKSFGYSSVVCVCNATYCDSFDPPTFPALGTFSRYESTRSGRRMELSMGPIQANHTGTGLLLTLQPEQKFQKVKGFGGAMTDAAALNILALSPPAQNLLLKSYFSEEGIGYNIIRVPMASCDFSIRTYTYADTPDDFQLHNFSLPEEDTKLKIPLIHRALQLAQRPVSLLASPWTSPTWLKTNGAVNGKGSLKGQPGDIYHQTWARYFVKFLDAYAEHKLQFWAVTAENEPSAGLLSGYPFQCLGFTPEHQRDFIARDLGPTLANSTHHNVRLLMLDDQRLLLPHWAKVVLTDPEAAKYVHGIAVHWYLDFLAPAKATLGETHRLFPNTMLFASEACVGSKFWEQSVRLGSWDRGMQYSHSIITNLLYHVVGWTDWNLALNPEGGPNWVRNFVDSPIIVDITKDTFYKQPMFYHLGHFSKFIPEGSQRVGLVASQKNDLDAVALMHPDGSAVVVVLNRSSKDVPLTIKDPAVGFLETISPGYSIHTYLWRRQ
Briefly: Beta-glucocerebrosidase (GBA, glucosylceramidase) assay (4-methylumbelliferyl-beta-D-pyranoside substrate, fluorescence). In short, it runs like this:
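IC50 by four-parameter fit of percent inhibition, with product fluorescence (365/440 nm) read after a glycine/NaOH pH 10 stop. Compound and commercial recombinant human enzyme were incubated 60 min at 37 °C before a further 60 min at 37 °C with 4-methylumbelliferyl-beta-D-pyranoside substrate.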

Test [4] concerns the target T2, recombinant alpha-glucosidase II (murine full-length glucosidase II, alpha and beta subunits, Glu 2) (Mus musculus, UniProt Q8BHN3).
T2 construct: made in house; host or cells: HEK-293T cells transduced with BacMam viruses (75% alpha, 25% beta); protein harvested from culture supernatant
Briefly: Alpha-glucosidase II assay (4-methylumbelliferyl-alpha-D-pyranoside substrate, fluorescence). Conditions: Glucosidase 2; read-out: Glu2 IC50.

T2 sequence (O08795 15-521): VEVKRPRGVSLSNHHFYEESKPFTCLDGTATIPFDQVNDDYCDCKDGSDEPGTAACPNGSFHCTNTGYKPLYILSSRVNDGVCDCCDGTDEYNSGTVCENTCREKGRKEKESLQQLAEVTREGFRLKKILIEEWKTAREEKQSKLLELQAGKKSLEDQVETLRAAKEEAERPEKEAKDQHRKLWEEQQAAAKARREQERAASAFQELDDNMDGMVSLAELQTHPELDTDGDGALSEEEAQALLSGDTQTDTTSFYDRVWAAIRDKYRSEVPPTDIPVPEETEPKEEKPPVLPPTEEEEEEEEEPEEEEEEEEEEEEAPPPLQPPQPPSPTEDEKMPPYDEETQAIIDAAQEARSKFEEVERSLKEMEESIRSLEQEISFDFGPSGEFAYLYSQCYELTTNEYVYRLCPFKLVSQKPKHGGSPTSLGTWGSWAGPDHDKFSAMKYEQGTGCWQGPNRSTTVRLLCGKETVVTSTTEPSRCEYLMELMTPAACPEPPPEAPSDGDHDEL
T2 sequence (Q8BHN3 33-944): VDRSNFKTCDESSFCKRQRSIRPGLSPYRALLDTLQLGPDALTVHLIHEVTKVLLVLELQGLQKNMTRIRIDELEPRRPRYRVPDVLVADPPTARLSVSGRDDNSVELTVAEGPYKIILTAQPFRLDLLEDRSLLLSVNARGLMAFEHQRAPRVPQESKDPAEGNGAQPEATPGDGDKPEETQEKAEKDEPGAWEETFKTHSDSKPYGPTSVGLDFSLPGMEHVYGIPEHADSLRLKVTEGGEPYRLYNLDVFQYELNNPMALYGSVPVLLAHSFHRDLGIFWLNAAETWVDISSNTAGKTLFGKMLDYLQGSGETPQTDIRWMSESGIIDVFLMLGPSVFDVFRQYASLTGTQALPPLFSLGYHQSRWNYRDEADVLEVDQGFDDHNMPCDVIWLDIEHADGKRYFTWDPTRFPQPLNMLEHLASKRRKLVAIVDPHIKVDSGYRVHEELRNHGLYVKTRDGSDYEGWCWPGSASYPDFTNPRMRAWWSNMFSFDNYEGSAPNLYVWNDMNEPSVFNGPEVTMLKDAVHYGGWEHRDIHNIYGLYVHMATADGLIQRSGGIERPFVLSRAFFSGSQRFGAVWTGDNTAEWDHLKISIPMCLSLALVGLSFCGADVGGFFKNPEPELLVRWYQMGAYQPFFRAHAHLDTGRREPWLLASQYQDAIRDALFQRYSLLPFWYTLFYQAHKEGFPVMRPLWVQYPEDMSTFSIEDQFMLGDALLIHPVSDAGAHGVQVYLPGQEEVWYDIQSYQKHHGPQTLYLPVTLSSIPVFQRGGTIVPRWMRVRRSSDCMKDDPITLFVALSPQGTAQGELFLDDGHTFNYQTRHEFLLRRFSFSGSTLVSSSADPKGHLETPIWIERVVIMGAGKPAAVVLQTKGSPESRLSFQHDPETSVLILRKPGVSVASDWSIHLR
rat sucrase (partially purified alpha-glucosidase from intestinal rat powder), sequence (P23739 whole entry): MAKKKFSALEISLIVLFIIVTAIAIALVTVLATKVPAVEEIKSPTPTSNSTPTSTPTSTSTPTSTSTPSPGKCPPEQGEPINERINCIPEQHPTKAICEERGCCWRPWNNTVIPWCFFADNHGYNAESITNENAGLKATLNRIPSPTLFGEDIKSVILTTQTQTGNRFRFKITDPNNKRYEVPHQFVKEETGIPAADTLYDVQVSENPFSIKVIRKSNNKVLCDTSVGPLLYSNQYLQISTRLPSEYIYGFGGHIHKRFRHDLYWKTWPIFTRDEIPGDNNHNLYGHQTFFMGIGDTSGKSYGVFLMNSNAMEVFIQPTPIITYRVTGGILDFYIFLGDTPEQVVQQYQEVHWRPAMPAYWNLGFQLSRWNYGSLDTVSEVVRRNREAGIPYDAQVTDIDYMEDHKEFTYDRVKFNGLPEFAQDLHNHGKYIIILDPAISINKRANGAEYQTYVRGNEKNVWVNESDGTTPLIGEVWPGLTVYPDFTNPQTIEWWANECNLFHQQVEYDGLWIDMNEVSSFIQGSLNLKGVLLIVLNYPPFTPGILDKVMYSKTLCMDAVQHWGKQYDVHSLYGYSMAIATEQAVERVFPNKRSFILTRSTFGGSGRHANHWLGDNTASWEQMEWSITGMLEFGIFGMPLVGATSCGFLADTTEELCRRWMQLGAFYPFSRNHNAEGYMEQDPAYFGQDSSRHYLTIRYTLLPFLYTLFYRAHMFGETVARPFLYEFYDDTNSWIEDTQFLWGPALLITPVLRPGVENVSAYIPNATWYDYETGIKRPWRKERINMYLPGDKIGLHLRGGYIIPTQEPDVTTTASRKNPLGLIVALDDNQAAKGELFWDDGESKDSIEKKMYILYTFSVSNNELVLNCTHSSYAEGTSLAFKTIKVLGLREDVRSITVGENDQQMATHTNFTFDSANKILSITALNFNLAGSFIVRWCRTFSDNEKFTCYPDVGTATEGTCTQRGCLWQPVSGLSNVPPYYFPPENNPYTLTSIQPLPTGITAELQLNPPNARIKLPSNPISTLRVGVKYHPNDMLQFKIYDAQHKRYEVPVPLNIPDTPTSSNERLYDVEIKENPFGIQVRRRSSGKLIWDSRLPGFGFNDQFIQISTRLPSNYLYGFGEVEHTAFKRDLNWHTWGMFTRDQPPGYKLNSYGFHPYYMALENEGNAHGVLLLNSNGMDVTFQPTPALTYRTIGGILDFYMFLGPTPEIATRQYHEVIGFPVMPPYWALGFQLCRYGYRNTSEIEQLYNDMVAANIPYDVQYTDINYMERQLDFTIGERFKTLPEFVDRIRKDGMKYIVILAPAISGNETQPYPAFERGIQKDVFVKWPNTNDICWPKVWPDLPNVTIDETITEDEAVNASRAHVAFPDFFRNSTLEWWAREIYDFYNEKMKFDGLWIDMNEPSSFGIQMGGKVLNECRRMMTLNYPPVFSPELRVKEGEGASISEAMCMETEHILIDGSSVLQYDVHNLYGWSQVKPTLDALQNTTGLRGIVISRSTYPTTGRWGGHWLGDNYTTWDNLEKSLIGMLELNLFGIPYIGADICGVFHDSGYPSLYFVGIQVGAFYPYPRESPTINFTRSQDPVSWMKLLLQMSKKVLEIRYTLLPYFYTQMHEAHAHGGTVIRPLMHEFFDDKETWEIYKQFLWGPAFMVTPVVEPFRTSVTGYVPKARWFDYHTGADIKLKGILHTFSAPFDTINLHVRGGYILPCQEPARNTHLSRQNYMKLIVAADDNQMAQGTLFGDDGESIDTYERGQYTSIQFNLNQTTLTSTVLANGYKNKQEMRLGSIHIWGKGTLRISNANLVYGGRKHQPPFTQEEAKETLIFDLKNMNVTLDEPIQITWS

As for `COc1cc(-c2ncccn2)ccc1NCCCCCCN1C[C@H](O)[C@@H](O)[C@H](O)[C@H]1CO` [Compound 1231, (2R,3R,4R,5S)-2-(hydroxymethyl)-1-(6-{[2-methoxy-4-(pyrimidin-2-yl)phenyl]amino}hexyl)piperidine-3,4,5-triol], the pIC50 is 7.17 in test [1], 7.04 in test [2], 5.68 in test [3] and 7.52 in test [4].

As to `Cc1cc(NCc2cnc(CN3C[C@H](O)[C@@H](O)[C@H](O)[C@H]3CO)cn2)cc(N2CCOCC2)c1` [Compound 1332, (2R,3R,4R,5S)-2-(hydroxymethyl)-1-{[5-({[3-methyl-5-(morpholin-4-yl)phenyl]amino}methyl)pyrazin-2-yl]methyl}piperidine-3,4,5-triol], the pIC50 in test [1] is 5.46; in test [2], 6.78; in test [3], less than 4.00; in test [4], less than 4.00.

Consider `N#Cc1cc(NCc2cccc(CN3C[C@H](O)[C@@H](O)[C@H](O)[C@H]3CO)c2)cc(N2CCOCC2)c1` [Compound 1042, 3-(morpholin-4-yl)-5-{[(3-{[(2R,3R,4R,5S)-3,4,5-trihydroxy-2-(hydroxymethyl)piperidin-1-yl]methyl}phenyl)methyl]amino}benzonitrile], for which the pIC50 in test [1] was 6.79; in test [2], 5.74; in test [3], less than 4.00; in test [4] it was 5.06.

As to `NS(=O)(=O)c1cc(-c2ncccn2)ccc1NCCCCCCN1C[C@H](O)[C@@H](O)[C@H](O)[C@H]1CO` [Compound 1265, 5-(pyrimidin-2-yl)-2-({6-[(2R,3R,4R,5S)-3,4,5-trihydroxy-2-(hydroxymethyl)piperidin-1-yl]hexyl}amino)benzene-1-sulfonamide], the pIC50 in test [1] was 7.01; in test [2], 7.46; in test [3] it was 5.29; in test [4], 7.92.

In the case of `[N-]=[N+]=Nc1ccc(NCCN2CCN(CCN3C[C@H](O)[C@@H](O)[C@H](O)[C@H]3CO)CC2)c([N+](=O)[O-])c1` [Compound 1273, (2R,3R,4R,5S)-1-[2-(4-{2-[(4-azido-2-nitrophenyl)amino]ethyl}piperazin-1-yl)ethyl]-2-(hydroxymethyl)piperidine-3,4,5-triol], the pIC50 in test [1] is 4.67; in test [2], 4.81; in test [3], 5.53; in test [4], 6.26.

As for `N#Cc1cc(-c2ncccn2)ccc1NCCCCCCN1C[C@H](O)[C@@H](O)[C@H](O)[C@H]1CO` [Compound 1256, 5-(pyrimidin-2-yl)-2-({6-[(2R,3R,4R,5S)-3,4,5-trihydroxy-2-(hydroxymethyl)piperidin-1-yl]hexyl}amino)benzonitrile], the pIC50 is 7.06 in test [1], 7.48 in test [2], 5.91 in test [3] and 8.22 in test [4].

Take `N#Cc1ccc(NCCCCCCN2C[C@H](O)[C@@H](O)[C@H](O)[C@H]2CO)c([N+](=O)[O-])c1` [Compound 1304, 3-nitro-4-({6-[(2R,3R,4R,5S)-3,4,5-trihydroxy-2-(hydroxymethyl)piperidin-1-yl]hexyl}amino)benzonitrile]: the pIC50 in test [1] is 7.22; in test [2], 7.37; in test [3], 7.37; in test [4], 7.66.

Consider `Cc1cc(-c2ncccn2)ccc1NCCCCCCN1C[C@H](O)[C@@H](O)[C@H](O)[C@H]1CO` [Compound 1233, (2R,3R,4R,5S)-2-(hydroxymethyl)-1-(6-{[2-methyl-4-(pyrimidin-2-yl)phenyl]amino}hexyl)piperidine-3,4,5-triol], for which the pIC50 in test [1] was 6.89; in test [2] it was 5.99; in test [3], 5.88; in test [4], 7.64.
